From ChEMBL document CHEMBL3627615, “Discovery of the disubstituted oxazole analogues as a novel class anti-tuberculotic agents against MDR- and XDR-MTB” (Bioorg Med Chem Lett, 2015) come the findings set out here.

The test system of test [1] is Mycobacterium tuberculosis. Put plainly: Antimycobacterial activity against multidrug-resistant Mycobacterium tuberculosis FJ05120 after 3 to 4 weeks by microplate alamar blue assay. Format: functional. In general terms: Resazurin is reduced to fluorescent resorufin, in cell work by metabolically active cells.
Test [2] relates to Mycobacterium tuberculosis. Briefly: Antimycobacterial activity against extensively drug-resistant Mycobacterium tuberculosis FJ05195 after 3 to 4 weeks by microplate alamar blue assay. Format: functional.

≈ marks a conversion by molar mass, not a printed value.

As a reminder, the MIC90 is the lowest concentration that inhibits either 90% of growth or 90% of the strains tested, depending on the study. Consider `COc1ccc(C(=O)C2CCN(Cc3coc(-c4ccc(F)cc4)n3)CC2)cc1OC`, for which the MIC90 in test [1] and in test [2] was 16 µg/mL (≈ 37.7 µM) each time.

In the case of `O=C(c1ccc2c(c1)OCCO2)C1CCN(Cc2coc(-c3ccc(F)cc3)n2)CC1`, the MIC90 in test [1] and in test [2] was 8 µg/mL (≈ 18.9 µM) throughout.

Take `O=C(c1ccc2c(c1)OCCO2)C1CCN(Cc2coc(-c3ccc(Cl)cc3)n2)CC1`: the results for the MIC90 in test [1] and in test [2] were 8 µg/mL (≈ 18.2 µM) and 4 µg/mL (≈ 9.11 µM), respectively.

Regarding `O=C(c1ccc2c(c1)OCCO2)C1CCN(Cc2coc(-c3ccc(Br)cc3)n2)CC1`, the MIC90 in test [1] and in test [2] was 8 µg/mL (≈ 16.6 µM) throughout.

`O=C(c1ccc2c(c1)OCCO2)C1CCN(Cc2coc(-c3ccccc3)n2)CC1`: the MIC90 in test [1] and in test [2] was 8 µg/mL (≈ 19.8 µM) throughout.

For the compound `O=C(c1ccc2c(c1)OCCO2)C1CCN(Cc2coc(-c3ccc(C(F)(F)F)cc3)n2)CC1`, the MIC90 in test [1] and in test [2] was 64 µg/mL (≈ 135 µM) throughout.

For the compound `O=C(c1ccc2c(c1)OCCO2)C1CCN(Cc2coc(-c3ccc(F)c(F)c3)n2)CC1`, the MIC90 in test [1] and in test [2] was 8 µg/mL (≈ 18.2 µM) each time.

Turning to `O=C(c1ccc2c(c1)OCCO2)C1CCN(Cc2coc(-c3ccccc3F)n2)CC1`, the MIC90 was found to be 16 µg/mL (≈ 37.9 µM) in test [1] and 8 µg/mL (≈ 18.9 µM) in test [2].

As for `O=C(c1ccc2c(c1)OCCO2)C1CCN(Cc2coc(-c3cccc(F)c3)n2)CC1`, the MIC90 in test [1] came out at 16 µg/mL (≈ 37.9 µM); in test [2], 8 µg/mL (≈ 18.9 µM).

`COc1ccc(-c2nc(CN3CCC(C(=O)c4ccc5c(c4)OCCO5)CC3)co2)cc1`: the MIC90 in test [1] turned out to be 8 µg/mL (≈ 18.4 µM); in test [2], 4 µg/mL (≈ 9.21 µM).

As for `Cc1ccc(-c2nc(CN3CCC(C(=O)c4ccc5c(c4)OCCO5)CC3)co2)cc1`, the MIC90 in test [1] and in test [2] was 64 µg/mL (≈ 153 µM) each time.

With `CC(C)(C)c1ccc(-c2nc(CN3CCC(C(=O)c4ccc5c(c4)OCCO5)CC3)co2)cc1`, the MIC90 came to 2 µg/mL (≈ 4.34 µM) in test [1] and 1 µg/mL (≈ 2.17 µM) in test [2].

Take `O=C(c1ccc2c(c1)OCCO2)C1CCN(Cc2coc(-c3cccnc3)n2)CC1`: the MIC90 in test [1] and in test [2] was 32 µg/mL (≈ 78.9 µM) each time.

For `O=C(c1ccc2c(c1)OCCO2)C1CCN(Cc2coc(-c3ccco3)n2)CC1`, the MIC90 in test [1] and in test [2] was 32 µg/mL (≈ 81.1 µM) each time.

On to `O=C(c1ccc2c(c1)OCCO2)C1CCN(Cc2coc(-c3ccoc3)n2)CC1`, for which the MIC90 in test [1] amounted to 32 µg/mL (≈ 81.1 µM); in test [2] it was 64 µg/mL (≈ 162 µM).

For `O=C(c1ccc2c(c1)OCCO2)C1CCN(Cc2csc(-c3ccc(Cl)cc3)n2)CC1`, the MIC90 in test [1] and in test [2] was > 128 µg/mL each time.

For the compound `CC(C)(C)c1ccc(-c2nc(CN3CCC(C(=O)c4ccc5c(c4)OCCO5)CC3)cs2)cc1`, the MIC90 in test [1] and in test [2] was > 128 µg/mL in each case.

As to `O=C(c1ccc2c(c1)OCCO2)C1CCN(Cc2cc(-c3ccc(F)cc3)on2)CC1`, the MIC90 in test [1] and in test [2] was > 128 µg/mL throughout.

Turning to `O=C(c1ccc2c(c1)CCCC2)C1CCN(Cc2coc(-c3ccc(F)cc3)n2)CC1`, the MIC90 in test [1] and in test [2] was 4 µg/mL (≈ 9.56 µM) in each case.

As to `O=C(c1ccc(F)c(F)c1)C1CCN(Cc2coc(-c3ccc(F)cc3)n2)CC1`, the MIC90 in test [1] and in test [2] was 8 µg/mL (≈ 20 µM) throughout.

Regarding `O=C(c1ccccc1)C1CCN(Cc2coc(-c3ccc(F)cc3)n2)CC1`, the MIC90 in test [1] and in test [2] was 4 µg/mL (≈ 11 µM) each time.

With `Cc1ccc(C(=O)C2CCN(Cc3coc(-c4ccc(F)cc4)n3)CC2)cc1C`, the MIC90 in test [1] and in test [2] was 8 µg/mL (≈ 20.4 µM) throughout.

Consider `Cc1ccc(C(=O)C2CCN(Cc3coc(-c4ccc(F)cc4)n3)CC2)cc1`, for which the MIC90 in test [1] amounted to 16 µg/mL (≈ 42.3 µM); in test [2], 8 µg/mL (≈ 21.1 µM).

On to `COc1ccc(C(=O)C2CCN(Cc3coc(-c4ccc(F)cc4)n3)CC2)cc1`, for which the MIC90 in test [1] and in test [2] was 8 µg/mL (≈ 20.3 µM) throughout.

Regarding `CC(C)(C)c1ccc(-c2nc(CN3CCC(C(=O)c4ccc5c(c4)CCCC5)CC3)co2)cc1`, the MIC90 in test [1] and in test [2] was 4 µg/mL (≈ 8.76 µM) each time.

With `CC[C@@H](CO)NCCN[C@@H](CC)CO` [ETHAMBUTOL], the MIC90 in test [1] was 1 µg/mL (≈ 4.89 µM); in test [2], 8 µg/mL (≈ 39.2 µM).

As to `NNC(=O)c1ccncc1` [ISONIAZID], the MIC90 in test [1] amounted to 1 µg/mL (≈ 7.29 µM); in test [2] it was 4 µg/mL (≈ 29.2 µM).

For the compound `CO[C@H]1/C=C/O[C@@]2(C)Oc3c(C)c(O)c4c(O)c(c(/C=N/N5CCN(C)CC5)c(O)c4c3C2=O)NC(=O)/C(C)=C\C=C\[C@H](C)[C@H](O)[C@@H](C)[C@@H](O)[C@@H](C)[C@H](OC(C)=O)[C@@H]1C` [RIFAMPIN], the MIC90 in test [1] and in test [2] was > 256 µg/mL throughout.

Take `CN[C@@H]1[C@H](O[C@H]2[C@H](O[C@H]3[C@H](O)[C@@H](O)[C@H](N=C(N)N)[C@@H](O)[C@@H]3N=C(N)N)O[C@@H](C)[C@]2(O)C=O)O[C@@H](CO)[C@H](O)[C@H]1O` [STREPTOMYCIN]: the MIC90 is < 0.5 µg/mL in test [1] and 64 µg/mL (≈ 110 µM) in test [2].
